Assay results: US8762074B2, “Optimizing culture medium for CD34<+> hematopoietic cell expansion” (Sino-Cell Technologies, priority 2004, dated 2014)

B1: IL-6 sR: IL-6 sR (soluble receptor), purchased from R&D systems (protein, UniProt P08887 20-365, looked up)
extracellular domain: LAPRRCPAQEVARGVLTSLPGDSVTLTCPGVEPEDNATVHWVLRKPAAGSHPSRWAGMGRRLLLRSVQLHDSGNYSCYRAGRPAGTVHLLVDVPPEEPQLSCFRKSPLSNVVCEWGPRSTPSLTTKAVLLVRKFQNSPAEDFQEPCQYSQESQKFSCQLAVPEGDSSFYIVSMCVASSVGSKFSKTQTFQGCGILQPDPPANITVTAVARNPRWLSVTWQDPHSWNSSFYRLRFELRYRAERSKTFTTWMVKDLQHHCVIHDAWSGLRHVVQLRAQEEFGQGEWSEWSPEAMGTPWTESRSPPAENEVSTPMQALTTNKDDDNILFRDSANATSLPVQDSSSVPLP
modifications: extracellular domain
notes: IL-6 sR (soluble receptor), purchased from R&D systems
B2: Flt-3 ligand (protein, UniProt P49771 27-235, looked up)
Fms-related tyrosine kinase 3 …: TQDCSFQHSPISSDFAVKIRELSDYLLQDYPVTVASNLQDEELCGGLWRLVLAQRWMERLKTVAGSKMQGLLERVNTEIHFVTKCAFQPPPSCLRFVQTNISRLLQETSEQLVALKPWITRQNFSRCLELQCQPDSSTLPPPWSPRPLEATAPTAPQPPLLLLLLLPVGLLLLAAAWCLHWQRTRRRTPRPGEQVPPVPSPQDLLLVEH
notes: recombinant human growth factor
B3: granulocyte colonystimulating factor (protein, UniProt P09919 31-207, looked up)
Granulocyte …: TPLGPASSLPQSFLLKCLEQVRKIQGDGAALQEKLVSECATYKLCHPEELVLLGHSLGIPWAPLSSCPSQALQLAGCLSQLHSGLFLYQGLLQALEGISPELGPTLDTLQLDVADFATTIWQQMEELGMAPALQPTQGAMPAFASAFQRRAGGVLVASHLQSFLEVSYRVLRHLAQP
notes: as for B2

Key:
[1] = system: CD34<+> hematopoietic cells; assay: Ex vivo expansion culture of UCB CD133+/CD34+ cells, CD34+ cell growth by flow cytometry (cell density at day 7); format: cell-based, human; details: for regression coefficient of first-order model, Eq. (5): from Table 5, +1 = 10 ng/ml; for effect on CD34<+> cell growth/expansion: per Eq. (3), serum-containing IMDM; for regression coefficient of first-order model, Eq. (7): from Table 7, IMDM containing TISF; for regression coefficient of first-order model, Eq. (9): from Table 8, cytokine-containing medium
Experimental: (§1) The UCB of full-termed healthy newborns, included uneventful vaginal births or cesarean sections, was harvested with a standard 250-ml blood bag containing citrate-phosphate-dextrose-adenine anticoagulant (Terumo, Shibuya-ku, Tokyo, Japan).
(§2) Buffy coat cells were obtained from UCB samples by centrifugation (700×g for 20 min), and were diluted with an equal volume of wash buffer (Dulbecco's phosphate buffered saline (D-PBS, Sigma, St. Louis, Mo.) contain 2 mM EDTA (Sigma)). Then the Buffy coat cells were layered onto Ficoll-Paque (ρ=1.077 g/ml, Amersham Biosciences, Uppsala, Sweden) density gradients to deplete red blood cells (RBC) (700×g for 40 min). The mononuclear cell (MNC) interface was collected, diluted into four volumes of wash buffer, and centrifuged to pellet the cells (700×g for 10 min). The MNC pellet was washed twice and resuspended in MACS buffer (D-PBS contained 0.5% bovine serum albumin (BSA, Sigma) and 2 mM EDTA) for CD133<+> cell purification. CD133<+> cord blood cells were isolated using the Miltenyi VarioMACS device (Miltenyi Biotec, Bergisch Gladbach, Germany), according to the manufacturer's instruction. Briefly, UCB MNC were incubated for 30 min at 4° C. with human IgG to block the Fc receptors and mouse monoclonal antibody to human CD133 microbead (Miltenyi Biotec). Labeled cells were applied to magnetic column (LS column, Miltenyi Biotec). Then, unbound cells were washed out, and CD133<+> cells were eluted from the column with MACS buffer. To improve the purity of the CD133+ (or CD34<+>) cells, a secondary purification cycle was performed with the same way. Then the cells were sampled for CD34<+> analysis to determine yield, purity and viability and assayed for colony-forming cells (CFC) as day 0 for control. To expand cells, CD133<+> cells were seeded at a concentration of 5×10^4 cells/ml in 24-well plate (1 ml per well, Falcon, N.J.) with variable serum substitutes, cytokines and medium according to experiment design. After 7 days, the cells were analyzed to compare with the day 0 control (all experiments were repeated at least four times).
Cells before and after expanding culture were analyzed by two-color flow cytometry on a FACSCaliber analyzer (Becton-Dickinson, NJ, USA). About 1×10^6 cells were stained with FITC-conjugated anti-human CD45 and Peconjugated anti-human CD34, and gated for CD45<+>CD34<+> cells with low side scatter, according to the CD34 enumeration protocols developed by the International Society of Hematotherapy and Graft Engineering (ISHAGE) (Sutherland Dr, et al, J Hematother 1996; 5:231-8). A replicate sample was stained with FITC-antiCD45 and PE-mouse IgG1 as an isotype control to ensure specificity.
(§3) Two-level factorial design followed the method of steepest ascent was carried out to find the optimal concentration of serum substitutes and cytokines for CD34<+> cells expansion. Fractional and full factorial design data were regressed by SPSS software (SPSS Inc. In: SPSS for Windows, base system user's guide. Release 6.0. Chicago, Ill.: SPSS Inc.; 1993. p. 235-47) to obtain the first order polynomial. Its statistical significance was determined by an F-test and the significance of the regression coefficients was analyzed by a t-test. The polynomial takes the form of White blood cell or CD34<+> cell (cells/ml)=β0+βiXi (1) where β's are the regression constants and X's are coded variables for the tested additives.

WBC = assay: Ex vivo expansion culture of UCB CD133+/CD34+ cells, WBC growth (cell density at day 7); format: cell-based, human; details: for regression coefficient of first-order model, Eq. (4): from Table 5, serum-containing medium, +1 = 10 ng/ml; for effect on WBC growth: per Eq. (2), serum-containing IMDM; for regression coefficient of first-order model, Eq. (6): from Table 7, IMDM containing TISF; for regression coefficient of first-order model, Eq. (8): from Table 8, cytokine-containing medium
Experimental: as §1, §2, §3

[2] = 2^9−5 fractional factorial design in IMDM containing BIT2 (data not shown)
[3] = per Eqs. (4) and (5), serum-containing medium
[4] = per Eqs. (10) and (11), serum-free IMDM + BIT2
[5] = per Eqs. (6) and (7), serum substitutes in IMDM containing TISF
[6] = per Eqs. (8) and (9), serum substitutes in serum-free medium

Row | Molecule | effect on WBC and CD34<+> cell growth [1, 2] | regression coefficient of first-order model, Eq. (5) ([1]; serum-containing medium) | effect on CD34<+> cell growth/expansion [1] | effect on WBC and CD34<+> cell growth [1, 3] | effect on WBC and CD34<+> cell growth [1, 4] | regression coefficient of first-order model, Eq. (4) (WBC) | effect on WBC growth (WBC) | regression coefficient of first-order model, Eq. (7) [1] | regression coefficient of first-order model, Eq. (9) [1] | effect on WBC and CD34<+> cell growth [1, 5] | effect on WBC and CD34<+> cell growth [1, 6] | regression coefficient of first-order model, Eq. (6) (WBC) | regression coefficient of first-order model, Eq. (8) (WBC)
1 | stem cell factor [SCF] | could facilitate WBC and CD34<+> cell growth | 0.162 10^6 CD34<+> cells/ml | can stimulate CD34<+> cell expansion | facilitated WBC and CD34<+> cell growth | positively affected WBC and CD34<+> cell growth | 0.387 10^6 WBC cells/ml | stronger effects than the other cytokines |  |  |  |  |  | 
2 | granulocyte-macrophage colony-stimulating factor [GM-CSF] | could facilitate WBC and CD34<+> cell growth |  | negative |  | positively affected WBC and CD34<+> cell growth |  | positive |  |  |  |  |  | 
3 | bovine serum albumin [BSA] |  |  |  |  |  |  |  | 0.945 10^5 CD34<+> cells/ml | 0.302 10^6 CD34<+> cells/ml | can stimulate both WBC and CD34<+> cell growth | could promote WBC and CD34<+> cell growth instead of serum | 2.625 10^5 WBC cells/ml | 0.362 10^6 WBC cells/ml
4 | thrombopoietin [TPO] | could facilitate WBC and CD34<+> cell growth | 0.172 10^6 CD34<+> cells/ml | can stimulate CD34<+> cell expansion | facilitated WBC and CD34<+> cell growth | positively affected WBC and CD34<+> cell growth | 0.413 10^6 WBC cells/ml | stronger effects than the other cytokines |  |  |  |  |  | 
5 | Transferrin [TF] |  |  |  |  |  |  |  | 0.120 10^5 CD34<+> cells/ml | 0.303 10^6 CD34<+> cells/ml | can stimulate both WBC and CD34<+> cell growth | could promote WBC and CD34<+> cell growth instead of serum |  | 0.7 10^6 WBC cells/ml
6 | C[C@]12CCC(=O)C=C1CC[C@@H]1[C@@H]2[C@@H](O)C[C@@]2(C)[C@H]1CC[C@]2(O)C(=O)CO [HC, hydrocortisone, reference compound] |  |  |  |  |  |  |  |  |  |  |  | 0.5 10^5 WBC cells/ml | 
7 | insulin |  |  |  |  |  |  |  | 0.231 10^5 CD34<+> cells/ml | 0.053 10^6 CD34<+> cells/ml | can stimulate both WBC and CD34<+> cell growth | could promote WBC and CD34<+> cell growth instead of serum | 1.250 10^5 WBC cells/ml | 0.131 10^6 WBC cells/ml
8 | OCCS [Trial 2-ME, 2-mercaptoethanol] |  |  |  |  |  |  |  | 0.311 10^5 CD34<+> cells/ml | 0.025 10^6 CD34<+> cells/ml | can stimulate both WBC and CD34<+> cell growth | could promote WBC and CD34<+> cell growth instead of serum | 0.875 10^5 WBC cells/ml | 0.069 10^6 WBC cells/ml
9 | IL-6: recombinant human interleukin-6, purchased from R&D systems | could facilitate WBC and CD34<+> cell growth |  | less positive effects than TPO, IL-3, SCF and FL |  | positively affected WBC and CD34<+> cell growth |  |  |  |  |  |  |  | 
10 | B1 |  |  |  |  |  |  | inhibited WBC growth |  |  |  |  |  | 
11 | B2 | could facilitate WBC and CD34<+> cell growth | 0.110 10^6 CD34<+> cells/ml | can stimulate CD34<+> cell expansion | facilitated WBC and CD34<+> cell growth | positively affected WBC and CD34<+> cell growth | 0.237 10^6 WBC cells/ml | stronger effects than the other cytokines |  |  |  |  |  | 
12 | B3 | could facilitate WBC and CD34<+> cell growth |  | less positive effects than TPO, IL-3, SCF and FL |  | positively affected WBC and CD34<+> cell growth |  |  |  |  |  |  |  | 
